“And” between values parts separate entries of the source, which are not always exact repeats. Equal values may be shown once. Where a name gives a salt, the structure may show the parent alone. Read-outs that look alike come from different tables or passages of the source.
Legend:
[1] = choline salt of the named anion
[2] = test system: mouse macrophage cell line; conditions: cited from earlier work; for Log EC50: logarithm of EC50 in uM, matches the EC50 values of Weaver et al. (2010)
[3] = Differential scanning calorimetry of DPPC unilamellar vesicles mixed with test compound (screening assay for toxic membrane interactions)
[4] = cellular toxicity, values reproduced from Weaver et al. (2010)
[5] = 10 mM compound, DPPC liposomes, HEPES buffer pH 7.40
[6] = 10 mM compound, DPPC liposomes, HEPES buffer pH 7.40, scan 20 to 50° C., equilibrium scans
[7] = 10 mM compound, compared to DPPC control scan from same LUV batch solution
[8] = choline salt 10 mM, DPPC vesicle assay, Table 2
[9] = 10 mM compound, DPPC liposomes, HEPES buffer pH 7.40, NR = not resolvable
[10] = 10 mM compound, initial heating scan

Compound	EC50 [2, 4]	Effect on DPPC main gel-liquid crystal phase transition (in words) ([3]; 10 mM compound)	Main Transition ΔH [3, 5]	Main Transition ΔT(1/2) [3, 5]	Main Transition Tm [3, 6]	Change in Main Transition ΔTm [3, 7]	Change in Main Transition ΔΔH [3, 7]	Change in Main Transition ΔΔT(1/2) [3, 7]	Change in Pretransition ΔH [3, 7]	Δ Tm [3, 8]	ΔΔ H [3, 8]	ΔΔ T(1/2) [3, 8]	Pretransition ΔH [3, 9]	also measured
2-hydroxyethyl(trimethyl)azanium bis(2,4,4-trimethylpentyl)phosphinate [CTMP]	< 0.25 mM	large decrease in Tm and enthalpy, and increased cooperativity	3.58 kcal/mol	1.48 °C	32.6 °C and 33 °C and 32.58 °C	−21%	−52%	−17%	−100%	−8.08 C	−2011 cal/mole/ C	−0.37 C		Log Pow [1]: 3.60; Log EC50 [2]: 2.39 uM; Decrease of peak width (ΔΔT1/2) compared to control lipid vesicles ([3]; 10 mM compound): 17%; Reduction of main transition Tm compared to DPPC alone ([3]; 10 mM compound): 21%; Reduction of transition enthalpy (in words) ([3]; 10 mM compound, compared to control lipid vesicles): half; Pretransition peak of DPPC (in words) ([3]; 10 mM compound, peak normally at approximately 34° C.): below resolvable limits
2-hydroxyethyl(trimethyl)azanium bis(2-ethylhexyl)phosphate [CBEH]	< 0.3 mM		0.077 kcal/mol	2.95 °C	42.49 °C	+2.5%	−99%	+16%	−82%				0.066 kcal/mol	Main transition temperature [3, 10]: ~41 °C; Pretransition temperature [3, 10]: ~33 °C; Reduction in main transition enthalpy compared to DPPC in HEPES alone [3, 10]: 99%; Reduction in pretransition enthalpy compared to DPPC in HEPES alone [3, 10]: 82%; Third prominent peak (subtransition) temperature [3, 10]: 27 °C; New peak Tm ([3]; DPPC-CBEH dispersions run starting at 10° C., first heating scan): 21 °C
2-hydroxyethyl(trimethyl)azanium dibutyl phosphate [CDBP]	9 mM and 9.1 mM	no statistically significant effect	7.831 kcal/mol	1.50 °C	41.05 °C	−0.5%	+2%	−6%	−20%				0.44 kcal/mol	
C[N+](C)(C)CCO.[Cl-] [CCL, choline chloride, reference compound]														EC50 [2]: 34 mM; Change in Main Transition ΔTm [3]: +0.8%; Change in Main Transition ΔΔH [3]: +15%; Change in Main Transition ΔΔT(1/2) [3]: −3%; Change in Pretransition ΔH [3]: +51%; Main Transition Tm ([3]; pH 7.4): 41.70 °C; Main Transition ΔH ([3]; pH 7.4): 9.633 kcal/mol; Main Transition ΔT(1/2) ([3]; pH 7.4): 1.55 °C; Pretransition ΔH ([3]; pH 7.4): 0.378 kcal/mol
C[N+](C)(C)CCO.O=P([O-])(O)O [CDHP, 2-hydroxyethyl(trimethyl)azanium dihydrogen phosphate]	20 mM	no statistically significant effect	7.949 kcal/mol	1.33 °C	41.69 °C	+0.7%	+3%	−6%	−54%	+0.52 C	−76 cal/mole/ C	0.131 C	0.248 kcal/mol	Log Pow [1]: −3.15; Log EC50 [2]: 4.31 uM
CC(C)Cc1ccc(C(C)C(=O)[O-])cc1.[Na+] (stereo not drawn) [Ibuprofen sodium salt, ibuprofen sodium salt, reference compound]			7.222 kcal/mol	1.79 °C	38.82 °C	−6%	−11%	+12%	−13%				0.375 kcal/mol	
CC(=O)CCC(=O)O [Levulinate]		a moderate decrease in Tm, and a large decrease in enthalpy								−0.21 C	−2155 cal/mole/ C	0.39 C		
[Cl-].[Na+] [NaCl, sodium chloride, reference compound]														EC50 [2]: 63 mM and 60 mM; Change in Main Transition ΔTm [3]: +0.8%; Change in Main Transition ΔΔH [3]: +17%; Change in Main Transition ΔΔT(1/2) [3]: −4%; Change in Pretransition ΔH [3]: +103%; Main Transition Tm ([3]; pH 7.4): 41.72 °C; Main Transition ΔH ([3]; pH 7.4): 9.823 kcal/mol; Main Transition ΔT(1/2) ([3]; pH 7.4): 1.53 °C; Pretransition ΔH ([3]; pH 7.4): 0.508 kcal/mol
CNCCC=C1c2ccccc2CCc2ccccc21 [Nortriptyline hydrochloride, nortriptyline hydrochloride, reference compound]		shifted to lower temperatures, with notable main peak broadening	8.078 kcal/mol	1.41 °C	30.66 °C	−26%	+8%	+6%	−100%					
choline formate											−733 cal/mole/ C	−0.02 C		Effect on DPPC main gel-liquid crystal phase transition (in words) [3]: a moderate increase in Tm and a moderate decrease in enthalpy; Δ Tm [3]: +0.31 C
choline lactate		a moderate increase in Tm and a moderate decrease in enthalpy								+0.37 C	−480 cal/mole/ C	−0.06 C		Log Pow [1]: −1.73
choline tartarate											+121.9 cal/mole/ C	−0.03 C		Δ Tm [3]: +0.35 C
